Holding throughout (type): cell-based
One assay relates to Huh7 cells. The assay is described as follows: LD content in Huh7 cells pre-treated with insulin, Oil-Red-O staining, absorbance OD 540 nm. As to conditions: procedure of Example 3, read-out: LD content inhibition (EC50). How it is done: FIG. 6. […] Spectrophotometric absorbance of untreated or HPN-01-treated Huh7 cells pre-incubated with 1 mM insulin is shown. LD contents were stained using Oil Red O, and measured by determining spectrophotometer absorbance under OD 540 nm.
Huh7 cells were mock treated or pre-treated with 1 mM insulin, and subsequently treated with indicated amounted of HPN-01.
The ability of each HPN-01 derivative obtained from the synthesis methods described above, to inhibit LD formation in hepatocytes, was tested using the procedure outlined in Example 3. The results of this analysis are shown below in Table 6 (second column).

For the next assay, the system named is SREBP-1. The assay is described as follows: SREBP-1 expression in cultured primary human hepatocytes. The settings on record: procedure of Example 6, read-out: SREBP-1 mRNA inhibition (EC50). How it is done: (§1) FIG. 9. Effects of HPN-01 on the expression of SREBP-1 (master regulator of hepatic glucose metabolism and fatty acid synthesis) and SREBP-2 (master regulator of cholesterol homeostasis in cells) in cultured primary human hepatocytes.
(§2) Cultured primary human hepatocytes were treated with various concentrations of HPN-01, and the expression levels of SREBP-1 (master regulator of hepatic glucose metabolism and fatty acid synthesis) and SREBP-2 (master regulator of cholesterol homeostasis in cells) were subsequently determined.
(§3) The ability of each HPN-01 derivative obtained from the synthesis methods described above, to inhibit SREBP-1 and SREBP-2 mRNA expression in primary hepatocytes, was tested using the procedure outlined in Example 6. The results of this analysis are shown in Table 6 (third and fourth columns).

For the next assay, the system named is SREBP-2. The assay is described as follows: SREBP-2 expression in cultured primary human hepatocytes. As to conditions: procedure of Example 6, read-out: SREBP-2 mRNA inhibition (EC50). How it is done:
as §1, §2, §3

The mark [1] stands for this setting: Homo sapiens, Huh-7, Huh7 cells.

pEC50: −log10 of the molar value. Read-outs that look alike come from different tables or passages of the source.

The values that follow come from US11000491B2, “Amino-aryl-benzamide compounds and methods of use thereof” (HEPANOVA, INC., priority 2017, dated 2021).

What is called pEC50 is the EC50 on a negative log10 scale, so that one unit is a factor of ten. Take `NC(=O)c1cc(C#Cc2ccc(Br)cc2)cc(-c2ccc(S(N)(=O)=O)cc2)c1N` [HPN-01207, 2-amino-5-((4-bromophenyl)ethynyl)-4′-sulfamoyl-[1,1′-biphenyl]-3-carboxamide]: the pEC50 in the assay on Huh7 cells (setting [1]) was 6.01; in the assay on SREBP-1 (Homo sapiens, Hepatocyte), 5.71; in the assay with SREBP-2 (Homo sapiens, Hepatocyte) it was 5.56.
For the molecule `NC(=O)c1cc(-c2ccc(Cl)cc2)cc(NCc2ccc(S(N)(=O)=O)cc2)c1N` [HPN-01426, 4-amino-4′-chloro-5-((4-sulfamoylbenzyl)amino)-[1,1′-biphenyl]-3-carboxamide], the pEC50 with Huh7 cells (setting [1]) is 5.94; in the assay with SREBP-1 (Homo sapiens, Hepatocyte), 4.96; in the assay on SREBP-2 (Homo sapiens, Hepatocyte), 5.03.
Turning to `CCC(=O)Nc1ccc(-c2cc(-c3ccc(Cl)cc3)cc(C(N)=O)c2N)cc1` [HPN-01408, 4′-amino-4-chloro-4″-propionamido-[1,1′:3′,1″-terphenyl]-5′-carboxamide], the pEC50 in the assay on Huh7 cells (setting [1]) was 5.82; in the assay on SREBP-1 (Homo sapiens, Hepatocyte), 5.59; with SREBP-2 (Homo sapiens, Hepatocyte), 5.36.
Take `Nc1c(C(=O)Nc2ccccc2)cc(-c2ccc(Br)cc2)cc1-c1ccc(S(N)(=O)=O)cc1` [HPN-01612, 4′-amino-4-bromo-N-phenyl-4″-sulfamoyl-[1,1′:3′,1″-terphenyl]-5′-carboxamide]: the pEC50 in the assay with Huh7 cells (setting [1]) is 6.19; in the assay with SREBP-1 (Homo sapiens, Hepatocyte), 5.51; in the assay on SREBP-2 (Homo sapiens, Hepatocyte), 5.26.
For the molecule `NC(=O)c1cc(-c2ccc(Cl)cc2)cc(Nc2cccc(S(N)(=O)=O)c2)c1N` [HPN-01413, 4-amino-4′-chloro-5-((3-sulfamoylphenyl)amino)-[1,1′-biphenyl]-3-carboxamide], the pEC50 in the assay on Huh7 cells (setting [1]) is 6.13; in the assay with SREBP-1 (Homo sapiens, Hepatocyte) it was 5.82; in the assay with SREBP-2 (Homo sapiens, Hepatocyte), 5.57.
Turning to `NC(=O)c1cc(Nc2ccc(Cl)cc2)cc(-c2ccc(S(N)(=O)=O)cc2)c1N` [HPN-01312, 2-amino-5-((4-chlorophenyl)amino)-4′-sulfamoyl-[1,1′-biphenyl]-3-carboxamide], the pEC50 with Huh7 cells (setting [1]) was 5.84; in the assay on SREBP-1 (Homo sapiens, Hepatocyte) it was 5.12; with SREBP-2 (Homo sapiens, Hepatocyte), 4.99.
`CCC(=O)Oc1ccc(-c2cc(C(N)=O)c(N)c(-c3ccc(S(N)(=O)=O)cc3)c2)cc1` [HPN-01305, 4′-amino-5′-carbamoyl-4″-sulfamoyl-[1,1′:3′,1″-terphenyl]-4-yl propionate]: the pEC50 was 6.09 in the assay on Huh7 cells (setting [1]); 5.76 in the assay with SREBP-1 (Homo sapiens, Hepatocyte); 5.41 in the assay with SREBP-2 (Homo sapiens, Hepatocyte).
For the molecule `NC(=O)c1cc(Sc2ccc(Cl)cc2)cc(-c2ccc(S(N)(=O)=O)cc2)c1N` [HPN-01314, 2-amino-5-((4-chlorophenyl)thio)-4′-sulfamoyl-[1,1′-biphenyl]-3-carboxamide], the pEC50 in the assay on Huh7 cells (setting [1]) is 5.93; in the assay on SREBP-1 (Homo sapiens, Hepatocyte), 5.34; in the assay on SREBP-2 (Homo sapiens, Hepatocyte), 5.11.
Regarding `C[Si](C)(C)C#Cc1cc(C(N)=O)c(N)c(-c2ccc(S(N)(=O)=O)cc2)c1` [HPN-01209, 2-amino-4′-sulfamoyl-5-((trimethylsilyl)ethynyl)-[1,1′-biphenyl]-3-carboxamide], the pEC50 is 6.09 with Huh7 cells (setting [1]), 5.63 with SREBP-1 (Hepatocyte) and 5.70 in the assay with SREBP-2 (Hepatocyte).
For `COC(=O)c1cccc(Oc2cc(C(N)=O)c(N)c(-c3ccc(S(N)(=O)=O)cc3)c2)c1` [HPN-01320, methyl 3-((6-amino-5-carbamoyl-4′-sulfamoyl-[1,1′-biphenyl]-3-yl)oxy)benzoate], the pEC50 with Huh7 cells (setting [1]) was 6.16; in the assay with SREBP-1 (Homo sapiens, Hepatocyte), 5.96; with SREBP-2 (Homo sapiens, Hepatocyte), 5.67.
The like results for `CCOC(=O)/C=C/c1cc(C(N)=O)c(N)c(-c2ccc(S(N)(=O)=O)cc2)c1` [HPN-01115, ethyl (E)-3-(6-amino-5-carbamoyl-4′-sulfamoyl-[1,1′-biphenyl]-3-yl)acrylate] were, in that order, 5.63, 5.19 and 5.22.
For `NC(=O)c1cc(C#CCOC(=O)c2cccc(O)c2)cc(-c2ccc(S(N)(=O)=O)cc2)c1N` [HPN-01219, 3-(6-amino-5-carbamoyl-4′-sulfamoyl-[1,1′-biphenyl]-3-yl)prop-2-yn-1-yl 3-hydroxybenzoate], the pEC50 in the assay with Huh7 cells (setting [1]) is 6.02; in the assay on SREBP-1 (Homo sapiens, Hepatocyte) it was 5.33; with SREBP-2 (Homo sapiens, Hepatocyte), 5.16.
With `NS(=O)(=O)c1ccc(-c2cc(-c3ccc(Br)cc3)cc3c(=O)[nH]c(=O)[nH]c23)cc1` [HPN-01610, 4-(6-(4-bromophenyl)-2,4-dioxo-1,2,3,4-tetrahydroquinazolin-8-yl)benzene sulfonamide], the pEC50 was 5.94 with Huh7 cells (setting [1]); 5.70 in the assay with SREBP-1 (Homo sapiens, Hepatocyte); 5.46 with SREBP-2 (Homo sapiens, Hepatocyte).
Regarding `NC(=O)c1cc(C#CCOC(=O)c2ccccc2Cl)cc(-c2ccc(S(N)(=O)=O)cc2)c1N` [HPN-01210, 3-(6-amino-5-carbamoyl-4′-sulfamoyl-[1,1′-biphenyl]-3-yl)prop-2-yn-1-yl 2-chlorobenzoate], the pEC50 in the assay with Huh7 cells (setting [1]) is 6.28; in the assay with SREBP-1 (Homo sapiens, Hepatocyte), 5.72; in the assay with SREBP-2 (Homo sapiens, Hepatocyte), 5.53.
The like results for `NC(=O)c1cc(/C=C/c2cccc(Br)c2)cc(-c2ccc(S(N)(=O)=O)cc2)c1N` [HPN-01103, (E)-2-amino-5-(3-bromostyryl)-4′-sulfamoyl-[1,1′-biphenyl]-3-carboxamide] were, in that order, 6.00, 5.67 and 5.51.
With `COc1cccc(NC(=O)c2cc(-c3ccc(Br)cc3)cc(-c3ccc(S(N)(=O)=O)cc3)c2N)c1` [HPN-01620, 4′-amino-4-bromo-N-(3-methoxyphenyl)-4″-sulfamoyl-[1,1′:3′,1″-terphenyl]-5′-carboxamide], the negative-log EC50 (pEC50) in the assay with Huh7 cells (setting [1]) is 5.27; in the assay on SREBP-1 (Homo sapiens, Hepatocyte), 5.24; with SREBP-2 (Homo sapiens, Hepatocyte) it was 5.04.
Regarding “butyl (E)-3-(6-amino-5-carbamoyl-4′-sulfamoyl-[1,1′-biphenyl]-3-yl)acrylate [HPN-01117]”, the pEC50 in the assay with Huh7 cells (Huh7 cells) was 5.94; with SREBP-1, 5.16; in the assay on SREBP-2, 5.08.
On to `NC(=O)c1cc(-c2ccc(Cl)cc2)cc(-c2ccc(S(N)(=O)=O)cn2)c1N` [HPN-01428, 4-amino-4′-chloro-5-(5-sulfamoylpyridin-2-yl)-[1,1′-biphenyl]-3-carboxamide], for which the pEC50 is 5.94 in the assay with Huh7 cells (setting [1]); 5.25 in the assay on SREBP-1 (Homo sapiens, Hepatocyte); 4.73 with SREBP-2 (Homo sapiens, Hepatocyte).
The like results for `CCOC(=O)c1ccc(-c2cc(C(N)=O)c(N)c(-c3ccc(S(N)(=O)=O)cc3)c2)cc1` [HPN-01302, ethyl 4′-amino-5′-carbamoyl-4″-sulfamoyl-[1,1′:3′,1″-terphenyl]-4-carboxylate] were, in that order, 5.99, 5.50 and 5.34.
`NC(=O)c1cc(-c2ccc(Cl)cc2)cc(Oc2cccc(S(N)(=O)=O)c2)c1N` [HPN-01412, 4-amino-4′-chloro-5-(3-sulfamoylphenoxy)-[1,1′-biphenyl]-3-carboxamide]: the negative logarithm of the EC50 (pEC50) was 5.68 in the assay with Huh7 cells (setting [1]); 5.51 in the assay on SREBP-1 (Homo sapiens, Hepatocyte); 5.21 with SREBP-2 (Homo sapiens, Hepatocyte).
For `CC(=O)Nc1ccc(-c2cc(-c3ccc(Cl)cc3)cc(C(N)=O)c2N)cc1` [HPN-01407, 4″-acetamido-4’-amino-4-chloro-[1,1′:3′,1″-terphenyl]-5′-carboxamide], the pEC50 in the assay on Huh7 cells (setting [1]) was 5.97; in the assay on SREBP-1 (Homo sapiens, Hepatocyte), 5.27; in the assay with SREBP-2 (Homo sapiens, Hepatocyte), 5.01.
For `NC(=O)c1cc(Oc2ccc(Cl)cc2)cc(-c2ccc(S(N)(=O)=O)cc2)c1N` [HPN-01313, 2-amino-5-(4-chlorophenoxy)-4′-sulfamoyl-[1,1′-biphenyl]-3-carboxamide], the negative-log EC50 (pEC50) in the assay on Huh7 cells (setting [1]) is 5.75; in the assay with SREBP-1 (Homo sapiens, Hepatocyte) it was 5.26; with SREBP-2 (Homo sapiens, Hepatocyte), 5.03.
Take `Nc1c(C(=O)Nc2ccsc2)cc(-c2ccc(Cl)cc2)cc1-c1ccc(S(N)(=O)=O)cc1` [HPN-01627, 4′-amino-4-chloro-4″-sulfamoyl-N-(thiophen-3-yl)-[1,1′:3′,1″-terphenyl]-5′-carboxamide]: the pEC50 with Huh7 cells (setting [1]) is 5.92; in the assay with SREBP-1 (Homo sapiens, Hepatocyte) it was 5.71; with SREBP-2 (Homo sapiens, Hepatocyte), 5.37.
On to `Nc1c(C(=O)Nc2ccc(F)c(F)c2)cc(-c2ccc(Cl)cc2)cc1-c1ccc(S(N)(=O)=O)cc1` [HPN-01615, 4′-amino-4-chloro-N-(3,4-difluorophenyl)-4″-sulfamoyl-[1,1′:3′,1″-terphenyl]-5′-carboxamide], for which the pEC50 in the assay with Huh7 cells (setting [1]) is 5.94; in the assay on SREBP-1 (Homo sapiens, Hepatocyte), 5.17; in the assay on SREBP-2 (Homo sapiens, Hepatocyte), 4.93.
In the case of `CCCC(=O)Oc1ccc(-c2cc(C(N)=O)c(N)c(-c3ccc(S(N)(=O)=O)cc3)c2)cc1` [HPN-01306, 4′-amino-5′-carbamoyl-4″-sulfamoyl-[1,1′:3′,1″-terphenyl]-4-yl butyrate], the pEC50 in the assay with Huh7 cells (setting [1]) is 5.88; in the assay on SREBP-1 (Homo sapiens, Hepatocyte), 5.75; with SREBP-2 (Homo sapiens, Hepatocyte) it was 5.49.
The like results for `NC(=O)N1CCN(c2cc(-c3ccc(Cl)cc3)cc(-c3ccc(S(N)(=O)=O)cc3)c2N)CC1` [HPN-01623, 4-(4′-amino-4-chloro-4″-sulfamoyl-[1, 1′:3′,1″-terphenyl]-5′-yl)piperazine-1-carboxamide] were, in that order, 4.82, 4.42 and 4.30.
